Assay results taken from ChEMBL document CHEMBL3639234, “Pyrimidine PDE10 inhibitors” (2015).

Biological target: cAMP and cAMP-inhibited cGMP 3',5'-cyclic phosphodiesterase 10A (Homo sapiens, UniProt Q9Y233)
Assay: Inhibition Assay: PDE10A2 was amplified from human fetal brain cDNA (Clontech, Mountain View, Calif.) using a forward primer corresponding to nucleotides 56-77 of human PDE10A2 (Accession No. AF127480, Genbank Identifier 4894716), containing a Kozak consensus sequence, and a reverse primer corresponding to nucleotides 2406-2413 of human PDE10A2 (Accession No. AF127480, Genbank Identifier 4894716). Amplification with Easy-A polymerase (Stratagene, La Jolla, Calif.) was 95° C. for 2 minutes followed by thirty three cycles of 95° C. for 40 seconds, 55° C. for 30 seconds, and 72° C. for 2 minutes 48 seconds. Final extension was 72° C. for 7 minutes. The PCR product was TA cloned into pcDNA3.2-TOPO (Invitrogen, Carlsbad, Calif.) according to standard protocol. AD293 cells with 70-80% confluency were transiently transfected with human PDE10A2/pcDNA3.2-TOPO using Lipofectamine 2000 according to manufacturer specifications (Invitrogen, Carlsbad, Calif.). Cells were harvested 48 hours post-transfection.
Assay type: cell-based

Sequence of cAMP and cAMP-inhibited cGMP 3',5'-cyclic phosphodiesterase 10A (Q9Y233 whole entry): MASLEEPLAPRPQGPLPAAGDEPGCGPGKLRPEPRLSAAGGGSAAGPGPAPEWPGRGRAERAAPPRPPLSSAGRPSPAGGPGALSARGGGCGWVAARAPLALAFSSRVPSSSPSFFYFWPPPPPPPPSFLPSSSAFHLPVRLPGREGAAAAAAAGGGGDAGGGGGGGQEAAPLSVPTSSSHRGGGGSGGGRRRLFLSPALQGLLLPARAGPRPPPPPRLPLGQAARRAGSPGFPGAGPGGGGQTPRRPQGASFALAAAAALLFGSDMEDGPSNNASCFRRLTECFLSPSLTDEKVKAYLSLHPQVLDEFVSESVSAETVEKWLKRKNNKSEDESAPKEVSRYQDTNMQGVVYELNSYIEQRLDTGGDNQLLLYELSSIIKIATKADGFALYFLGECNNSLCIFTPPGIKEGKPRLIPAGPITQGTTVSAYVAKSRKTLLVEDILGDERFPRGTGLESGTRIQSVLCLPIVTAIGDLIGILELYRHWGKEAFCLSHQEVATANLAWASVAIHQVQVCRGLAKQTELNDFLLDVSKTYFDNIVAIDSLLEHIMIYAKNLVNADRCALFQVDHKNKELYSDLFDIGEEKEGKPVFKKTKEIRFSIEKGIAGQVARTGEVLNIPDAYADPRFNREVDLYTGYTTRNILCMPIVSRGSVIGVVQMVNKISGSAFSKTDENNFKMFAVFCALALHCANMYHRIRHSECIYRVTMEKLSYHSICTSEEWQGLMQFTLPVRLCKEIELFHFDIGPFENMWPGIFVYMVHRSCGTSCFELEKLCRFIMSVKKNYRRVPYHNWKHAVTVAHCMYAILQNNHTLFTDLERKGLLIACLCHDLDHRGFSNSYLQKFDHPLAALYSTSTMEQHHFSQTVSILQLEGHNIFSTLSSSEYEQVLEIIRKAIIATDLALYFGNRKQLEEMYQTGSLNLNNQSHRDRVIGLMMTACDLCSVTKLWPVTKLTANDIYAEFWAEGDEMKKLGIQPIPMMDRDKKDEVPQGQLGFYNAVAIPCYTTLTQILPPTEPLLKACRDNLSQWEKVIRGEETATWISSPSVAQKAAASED

Ki: 40 pM
Compound: Cc1ccc([C@H]2C[C@@H]2COc2cc(NCc3cnn(C)c3)nc(C)n2)nc1
